# Test results from US20230010803A1, “TREATMENTS FOR DIFFUSE LARGE B-CELL LYMPHOMA” (Janssen Pharmaceutica NV, priority 2021, published 2023).
# Columns and labels:
# non-GCB DLBCL [1] = experiment: Phoenix phase III randomized trial of R-CHOP with or without ibrutinib, analysed by LymphGen genetic subtype; assay type: in vivo, human; conditions: younger patients (age≤60) with N1 DLBCL (n=13)
# non-GCB DLBCL [2] = conditions: cited from earlier work
compound,measurement,setting,value
C=CC(=O)N1CCC[C@@H](n2nc(-c3ccc(Oc4ccccc4)cc3)c3c(N)ncnc32)C1 [ibrutinib],3-year EFS,non-GCB DLBCL [1],100%
same,3-year OS,non-GCB DLBCL [1],100%
same,toxicity compared to the placebo arm,non-GCB DLBCL [2]; older patients on the ibrutinib arm,significantly more toxicity
same,toxicity of addition of ibrutinib to R-CHOP,non-GCB DLBCL [2]; younger patients with non-GCB DLBCL,did not significantly increase toxicity
